From patent publication EP0022117A2, “Metoclopramid resinate and medicament containing it” (Trenker, Ady, priority 1979, dated 1981)

Tests used:
[1] = plasma half-life in the rat; assay type: in vivo; details: chez le rat, read-out: demi-vie plasmatique
[2] = plasma half-life in the dog; assay type: in vivo; details: chez le chien, read-out: demi-vie plasmatique

CCN(CC)CCNC(=O)c1cc(Cl)c(N)cc1OC [Metoclopramide]
half-life [1]: 1 to 1.5 h
half-life [2]: 1 to 1.5 h
